The results in this text go back to patent US20260028354A1, “TETRAHYDRONAPHTHALENE DERIVATIVES AS ESTROGEN RECEPTOR DEGRADERS” (REGENT OF THE UNIVERSITY OF MICHIGAN, priority 2022, published 2026).

For assay [1], the target named is ER in MCF-7 cells (Homo sapiens (Human), UniProt P03372). Description: In-cell Western (ICW) ER degradation assay in MCF-7 cells. Particulars: for DC50: MCF-7, ER degradation, read-out: MCF7 DC50; for MCF7 Dmax: MCF-7, maximal ER degradation. It counts as cell-based.
In assay [2] the target is ER in T47D cells (Homo sapiens (Human), UniProt P03372). Description: In-cell Western (ICW) ER degradation assay in T47D cells. It counts as cell-based. Particulars: for DC50: ER degradation.
The target of assay [3] is CRBN/DDB1 (Homo sapiens (Human), UniProt Q96SW2). Type of assay: binding. Conditions: His tagged CRBN+DDB1, Cy5-labeled Thalidomide probe, one hour; read-out: CRBN HTRF IC50. Here is the method:
The binding potency was determined using HTRF assay technology (Perkin Elmer). Compounds were serially diluted in DMSO and […] volume was transferred to white 384-well plate.
(In TR-FRET formats the signal depends on donor and acceptor labels being close together.)

The mark [4] stands for this setting: maximal ER degradation, 16 hrs treatment.
Setting [5] is: MCF7, MCF-7, maximal ER degradation, 16 hrs treatment, read-out: MCF7 Dmax.
Where [6] appears, read: maximal ER degradation, 16 hrs treatment, read-out: T47D Dmax.
Where [7] appears, read: MCF7, read-out: MCF7 Dmax, MCF-7, maximal ER degradation, 16 hrs treatment.
Setting [8] is: read-out: T47D Dmax, T47D, maximal ER degradation, 16 hrs treatment.

A word on the DC50: it is the concentration giving 50% degradation. By IC50 is commonly meant the concentration at which inhibition is half-maximal. By Dmax is commonly meant the greatest extent of degradation seen.

Where two headings read alike, the source gives them in different places. Bounds are passed on as bounds.

CRBN/DDB1, sequence (Q96SW2 whole entry, species assumed): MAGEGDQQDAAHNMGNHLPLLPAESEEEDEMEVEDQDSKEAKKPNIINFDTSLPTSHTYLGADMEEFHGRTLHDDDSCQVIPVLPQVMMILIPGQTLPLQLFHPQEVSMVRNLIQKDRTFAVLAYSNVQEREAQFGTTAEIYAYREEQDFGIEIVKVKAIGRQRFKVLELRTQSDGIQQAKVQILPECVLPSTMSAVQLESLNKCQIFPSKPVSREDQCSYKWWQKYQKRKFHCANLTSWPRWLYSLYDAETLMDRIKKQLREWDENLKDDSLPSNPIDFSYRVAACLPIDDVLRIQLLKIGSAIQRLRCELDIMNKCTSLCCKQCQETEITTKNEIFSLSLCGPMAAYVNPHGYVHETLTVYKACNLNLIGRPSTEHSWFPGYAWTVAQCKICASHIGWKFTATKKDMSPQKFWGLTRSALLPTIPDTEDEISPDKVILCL
CRBN/DDB1, sequence (Q16531 whole entry partner, species assumed): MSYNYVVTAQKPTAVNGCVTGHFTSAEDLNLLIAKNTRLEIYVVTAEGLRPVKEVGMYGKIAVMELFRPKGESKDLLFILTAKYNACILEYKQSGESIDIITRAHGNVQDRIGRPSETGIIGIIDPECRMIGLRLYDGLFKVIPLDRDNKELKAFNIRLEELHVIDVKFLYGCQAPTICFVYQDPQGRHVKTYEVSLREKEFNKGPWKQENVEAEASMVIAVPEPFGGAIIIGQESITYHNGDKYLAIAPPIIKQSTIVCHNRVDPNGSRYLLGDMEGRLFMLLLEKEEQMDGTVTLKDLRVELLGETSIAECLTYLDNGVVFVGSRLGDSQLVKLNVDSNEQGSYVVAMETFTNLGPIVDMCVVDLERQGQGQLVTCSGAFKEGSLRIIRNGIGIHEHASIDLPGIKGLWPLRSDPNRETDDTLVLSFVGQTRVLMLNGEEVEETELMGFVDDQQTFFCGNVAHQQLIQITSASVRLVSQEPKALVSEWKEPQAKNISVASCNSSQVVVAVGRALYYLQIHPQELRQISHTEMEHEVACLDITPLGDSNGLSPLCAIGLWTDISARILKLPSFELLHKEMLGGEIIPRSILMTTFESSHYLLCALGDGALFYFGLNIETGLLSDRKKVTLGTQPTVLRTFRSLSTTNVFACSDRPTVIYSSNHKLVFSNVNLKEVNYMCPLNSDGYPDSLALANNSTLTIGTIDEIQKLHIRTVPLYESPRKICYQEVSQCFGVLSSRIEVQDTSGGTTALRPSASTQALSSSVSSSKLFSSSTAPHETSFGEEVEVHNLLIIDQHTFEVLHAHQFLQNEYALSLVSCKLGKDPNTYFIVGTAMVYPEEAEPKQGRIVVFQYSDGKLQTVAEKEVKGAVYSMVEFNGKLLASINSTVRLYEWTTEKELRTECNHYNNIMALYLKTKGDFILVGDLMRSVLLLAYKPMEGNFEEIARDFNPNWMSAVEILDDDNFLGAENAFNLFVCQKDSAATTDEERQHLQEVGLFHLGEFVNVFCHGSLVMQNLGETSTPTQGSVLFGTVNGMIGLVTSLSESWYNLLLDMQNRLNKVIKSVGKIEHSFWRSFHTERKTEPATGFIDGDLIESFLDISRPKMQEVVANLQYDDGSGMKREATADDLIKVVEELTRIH
ER in MCF-7 cells, sequence (P03372 whole entry): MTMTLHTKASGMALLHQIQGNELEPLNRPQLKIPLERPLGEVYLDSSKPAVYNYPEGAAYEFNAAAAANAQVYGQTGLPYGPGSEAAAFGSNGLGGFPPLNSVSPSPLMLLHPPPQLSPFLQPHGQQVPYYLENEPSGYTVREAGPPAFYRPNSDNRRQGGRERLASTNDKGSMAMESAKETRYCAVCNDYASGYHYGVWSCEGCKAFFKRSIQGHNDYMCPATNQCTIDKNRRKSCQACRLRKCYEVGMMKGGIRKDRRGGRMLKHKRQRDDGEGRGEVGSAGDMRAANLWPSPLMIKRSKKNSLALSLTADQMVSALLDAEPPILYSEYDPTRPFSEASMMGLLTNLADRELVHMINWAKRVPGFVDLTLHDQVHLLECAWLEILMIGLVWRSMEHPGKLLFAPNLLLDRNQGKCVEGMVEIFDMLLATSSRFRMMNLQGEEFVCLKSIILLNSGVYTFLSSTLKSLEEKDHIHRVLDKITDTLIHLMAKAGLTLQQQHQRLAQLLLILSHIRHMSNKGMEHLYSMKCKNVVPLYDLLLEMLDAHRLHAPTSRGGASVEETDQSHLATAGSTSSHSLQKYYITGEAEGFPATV
ER in T47D cells, sequence (P03372 whole entry): as above

Turning to `O=C1CC[C@H](N2Cc3c(ccc4c3OC[C@H]3CN(CC5COC6(C5)CN(c5ccc([C@@H]7c8ccc(O)cc8CC[C@@H]7c7ccccc7)cc5)C6)CCN43)C2=O)C(=O)N1` (single isomer, unassigned) [Compound A7], in assay [1] (16 hrs treatment), the DC50 was less than 0.001 µM; the “MCF7 Dmax” value was “B (“B”: >50 and <75%)”. For the same compound, the DC50 in assay [2] (16 hrs treatment) is less than 0.001 µM. Moreover, the “T47D Dmax” value in assay [2] (setting [4]) was “B (“B”: >50 and <75%)”. Further, the IC50 in assay [3] lay within 0.5 to 5 µM.

As to `O=C1CC[C@H](N2Cc3cc4c(cc3C2=O)OC[C@H]2CN(C[C@@H]3COC5(CCN(c6ccc([C@H]7c8ccc(O)cc8CC[C@H]7c7ccccc7)cc6)CC5)C3)CCN42)C(=O)N1` [Compound A20, (S)-3-((R)-3-(((R)-8-(4-((1S, 2R)-6-hydroxy-2-phenyl-1,2,3,4-tetrahydronaphthalen-1-yl)phenyl)-1-oxa-8-azaspiro [4.5]decan-3-yl)methyl)-8-oxo-1,2,3,4,4a,5,8,10-oCtahydro-9H-pyrazino[1′,2′:4,5][1,4]oxazino[2,3-f]isoindol-9-yl)-piperidine-2,6-dione], the Dmax in assay [1] (setting [5]) and in assay [2] (setting [6]) was 50 to 75% throughout. The DC50 in assay [1] (16 hrs treatment) and in assay [2] (16 hrs treatment) was less than 0.001 µM each time. The IC50 in assay [3] lay in the range of 0.05 to 0.5 µM.

Turning to `COc1cc(N2CCC(CN3CC[C@]4(c5ccc(N[C@H]6CCC(=O)NC6=O)cc5)[C@H](C3)C4(F)F)CC2)ccc1[C@@H]1c2ccc(O)cc2CC[C@@H]1c1ccccc1` [Compound A90, (S)-3-((4-((1R,6R)-7,7-difluoro-3-((1-(4-((1S,2S)-6-hydroxy-2-phenyl-1,2,3,4-tetra-hydronaphthalen-1-yl)-3-meth-oxyphenyl)piperidin-4-yl)meth-yl)-3-azabicyclo[4.1.0]heptan-6-yl)phenyl)amino)piperidine-2,6-dione], the Dmax in assay [1] (setting [7]) and in assay [2] (setting [8]) was 25 to 50% throughout. Besides, the DC50 in assay [1] (16 hrs treatment) and in assay [2] (16 hrs treatment) was less than 0.001 µM each time. In addition, the half-inhibitory concentration (IC50) in assay [3] was more than 5 µM.

For the compound `O=C1CC[C@@H](Nc2ccc(C3CCN(C[C@@H]4COC5(CCN(c6ccc([C@@H]7c8ccc(O)cc8CC[C@@H]7c7ccccc7)cc6)CC5)C4)CC3)c(F)c2)C(=O)N1` (single isomer, unassigned) [Compound A62], the Dmax in assay [1] (setting [5]) and in assay [2] (setting [6]) was 25 to 50% throughout. Besides, the figures for the DC50 in assay [1] (16 hrs treatment) and in assay [2] (16 hrs treatment) were 0.01 to 0.1 µM and 0.001 to 0.01 µM, respectively. Besides, the IC50 in assay [3] fell in the range of 0.05 to 0.5 µM.

Regarding `O=C1CCC(NC(=O)c2ccc(N3CCN(CC4CCN(c5ccc([C@@H]6c7ccc(O)cc7CC[C@@H]6c6ccccc6)cc5)CC4)CC3)cn2)C(=O)N1` (stereo partly drawn) [Compound A58, N-(2,6-dioxopiperidin-3-yl)-5-(4-((1-(4-((1R,2S)-6-hydroxy-2-phenyl-1,2,3,4-tetrahydro-naphthalen-1-yl)phenyl)piper-idin-4-yl)methyl)piperazin-1-yl)picolinamide], the Dmax was more than 75% in assay [1] (setting [5]) and 50 to 75% in assay [2] (setting [6]). The DC50 in assay [1] (16 hrs treatment) and in assay [2] (16 hrs treatment) was less than 0.001 µM in each case. Moreover, the IC50 in assay [3] was more than 5 µM.

On to `COc1cc(N2CC3(CC(CN4CCN5c6ccc7c(c6OC[C@H]5C4)CN([C@H]4CCC(=O)NC4=O)C7=O)CO3)C2)ccc1[C@@H]1c2ccc(O)cc2CC[C@@H]1c1ccccc1` (single isomer, unassigned) [Compound A48], for which the Dmax in assay [1] (setting [5]) and in assay [2] (setting [6]) was 50 to 75% in each case. For the same compound, the DC50 in assay [1] (16 hrs treatment) and in assay [2] (16 hrs treatment) was 0.001 to 0.01 µM in each case. Besides, the IC50 in assay [3] was in the range of 0.05 to 0.5 µM.

Turning to `COc1cc(N2CCC(CN3CC[C@@]4(c5ccc(N[C@@H]6CCC(=O)NC6=O)cc5)C(C3)C4(F)F)CC2)ccc1[C@@H]1c2ccc(O)cc2CC[C@@H]1c1ccccc1` (mixture of isomers) [Compound A88, (3R)-3-((4-((1R)-7,7-difluoro-3-((1-(4-((1SR,2SR)-6-hydroxy-2-phenyl-1,2,3,4-tetra-hydronaphthalen-1-yl)-3-meth-oxyphenyl)piperidin-4-yl)meth-yl)-3-azabicyclo[4.1.0]heptan-6-yl)phenyl)amino)piperidine-2,6-dione], the Dmax in assay [1] (setting [7]) lay within 50 to 75%; in assay [2] (setting [8]), 25 to 50%. The DC50 in assay [1] (16 hrs treatment) is 0.001 to 0.01 µM; in assay [2] (16 hrs treatment), less than 0.001 µM. The IC50 in assay [3] was more than 5 µM.

With `COc1cc(N2CCC(CN3CC[C@@]4(c5ccc(N[C@H]6CCC(=O)NC6=O)cc5)C(C3)C4(F)F)CC2)ccc1[C@@H]1c2ccc(O)cc2CC[C@@H]1c1ccccc1` (stereo partly drawn) [Compound A92, (3S)-3-((4-((1R)-7,7-difluoro-3-((1-(4-((1S,2S)-6-hydroxy-2-phenyl-1,2,3,4-tetrahydronaph-thalen-1-yl)-3-methoxyphenyl)-piperidin-4-yl)methyl)-3-azabi-cyclo[4.1.0]heptan-6-yl)phen-yl)amino)piperidine-2,6-dione], the Dmax in assay [1] (setting [7]) and in assay [2] (setting [8]) was 25 to 50% throughout. For the same compound, the half-maximal degradation concentration (DC50) in assay [1] (16 hrs treatment) was less than 0.001 µM; in assay [2] (16 hrs treatment), 0.001 to 0.01 µM. In addition, the IC50 in assay [3] is more than 5 µM.

Regarding `COc1cc(N2CCC3(CC2)CC(CN2CCC4(CC2)COc2c4ccc4c2CN([C@H]2CCC(=O)NC2=O)C4=O)CO3)ccc1[C@@H]1c2ccc(O)cc2CC[C@@H]1c1ccccc1` (stereo partly drawn) [Compound A55, (3S)-3-(1′-((8-(4-((1S,2S)-6-hydroxy-2-phenyl-1,2,3,4-tetrahydronaphthalen-1-yl)-3-methoxyphenyl)-1-oxa-8-azaspiro[4.5]decan-3-yl)meth-yl)-6-oxo-6,8-dihydro-2H,7H-spiro[furo[2,3-e]isoindole-3,4′-piperidin]-7-yl)piperidine-2,6-dione], the figures for the Dmax in assay [1] (setting [7]) and in assay [2] (setting [8]) were 25 to 50% and 50 to 75%, respectively. In addition, the DC50 in assay [1] (16 hrs treatment) lay in the range of 0.01 to 0.1 µM; in assay [2] (16 hrs treatment), 0.001 to 0.01 µM. In assay [3], the IC50 is less than 0.05 µM.

Take `O=C1CC[C@H](N2Cc3cc4c(cc3C2=O)OCC42CCN(CC3CC4(CCN(c5ccc([C@@H]6c7ccc(O)cc7CC[C@@H]6c6ccccc6)cn5)CC4)C3)CC2)C(=O)N1` [Compound A126, (S)-3-(1′-((7-(5-((1S,2S)-6-hydroxy-2-phenyl-1,2,3,4-tetra-hydronaphthalen-1-yl)pyridin-2-yl)-7-azaspiro[3.5]nonan-2-yl)methyl)-7-oxo-5,7-dihydro-2H,6H-spiro[furo[2,3-f]iso-indole-3,4′-piperidin]-6-yl)-piperidine-2,6-dione]: in assay [1] (16 hrs treatment), the DC50 was less than 0.001 µM; the “MCF7 Dmax” value is “B (“B”: >50 and <75%)”. In assay [2] (16 hrs treatment), this compound yielded a DC50 of less than 0.001 µM. In addition, in assay [2] (setting [4]), the “T47D Dmax” value was “A (“A”: >=75%)”. The IC50 in assay [3] fell in the range of 0.05 to 0.5 µM.

Regarding `O=C1CC[C@H](Nc2ccc(C3CCN(C[C@@H]4COC5(CCN(c6ccc([C@@H]7c8ccc(O)cc8CC[C@@H]7c7ccccc7)cc6)CC5)C4)CC3)cc2)C(=O)N1` (single isomer, unassigned) [Compound A28], the Dmax in assay [1] (setting [5]) and in assay [2] (setting [6]) was 25 to 50% each time. The DC50 in assay [1] (16 hrs treatment) and in assay [2] (16 hrs treatment) was 0.01 to 0.1 µM throughout. In addition, in assay [3], the IC50 is 0.05 to 0.5 µM.

For the compound `COc1cc(N2CCC3(CC2)CC(CN2CCN4c5ccc6c(c5OC[C@H]4C2)CN([C@H]2CCC(=O)NC2=O)C6=O)CO3)ccc1[C@@H]1c2ccc(O)cc2CC[C@@H]1c1ccccc1` (stereo partly drawn) [Compound A53, (3S)-3-((5aR)-7-((8-(4-((1S, 2S)-6-hydroxy-2-phenyl-1,2,3,4-tetrahydronaphthalen-1-yl)-3-methoxyphenyl)-1-oxa-8-azaspiro[4.5]decan-3-yl)-methyl)-1-oxo-1,3,5,5a,6,7,8,9-octahydro-2H-pyrazino[1′,2′: 4,5][1,4]oxazino[2,3-e]isoindol-2-yl)piperidine-2,6-dione], the figures for the Dmax in assay [1] (setting [5]) and in assay [2] (setting [6]) were 25 to 50% and 50 to 75%, respectively. Further, the DC50 in assay [1] (16 hrs treatment) lay within 0.01 to 0.1 µM; in assay [2] (16 hrs treatment), 0.001 to 0.01 µM. In assay [3], the IC50 is less than 0.05 µM.

For `COc1cc(N2CCC3(CC2)CC(CN2CCC(c4ccc(NC5CCC(=O)NC5=O)cc4F)CC2)C3)ccc1[C@@H]1c2ccc(O)cc2CC[C@@H]1c1ccccc1` (stereo in doubt) [Compound A106, (R)-3-((3-fluoro-4-(1-((7-(4-((1S,2S)-6-hydroxy-2-phenyl-1,2,3,4-tetrahydronaphthalen-1-yl)-3-methoxyphenyl)-7-aza-spiro[3.5]nonan-2-yl)methyl)-piperidin-4-yl)phenyl)amino)-piperidine-2,6-dione], the DC50 in assay [1] (16 hrs treatment) and in assay [2] (16 hrs treatment) was less than 0.001 µM in each case. In addition, the “MCF7 Dmax” value in assay [1] (16 hrs treatment) was “B (“B”: >50 and <75%)”. Also, the “T47D Dmax” value in assay [2] (setting [4]) is “B (“B”: >50 and <75%)”. Further, in assay [3], the IC50 was in the range of 0.05 to 0.5 µM.

For the compound `COc1cc(N2CC3(CC(CN4CCN5c6ccc7c(c6OC[C@H]5C4)CN([C@H]4CCC(=O)NC4=O)C7=O)CO3)C2)ccc1[C@H]1c2ccc(O)cc2CC[C@H]1c1ccccc1` (single isomer, unassigned) [Compound A47], the values for the Dmax in assay [1] (setting [5]) and in assay [2] (setting [6]) were 50 to 75% and 25 to 50%, respectively. Besides, the DC50 in assay [1] (16 hrs treatment) fell in the range of 0.01 to 0.1 µM; in assay [2] (16 hrs treatment) it was 0.001 to 0.01 µM. Besides, the IC50 in assay [3] lay in the range of 0.05 to 0.5 µM.

As to `O=C1CC[C@@H](Nc2ccc([C@@]34CCN(CC5CCC6(CC5)CN(c5ccc([C@@H]7c8ccc(O)cc8CC[C@@H]7c7ccccc7)cc5)C6)C[C@@H]3C4(F)F)cc2)C(=O)N1` [Compound A64, (R)-3-((4-((1R,6R)-7,7-difluoro-3-((2-(4-((1R,2S)-6-hydroxy-2-phenyl-1,2,3,4-tetra-hydronaphthalen-1-yl)phenyl)-2-azaspiro[3.5]nonan-7-yl)-methyl)-3-azabicyclo[4.1.0]heptan-6-yl)phenyl)amino)-piperidine-2,6-dione], the Dmax in assay [1] (setting [7]) and in assay [2] (setting [8]) was 50 to 75% throughout. The half-maximal degradation concentration (DC50) in assay [1] (16 hrs treatment) and in assay [2] (16 hrs treatment) was 0.001 to 0.01 µM throughout. Further, the IC50 in assay [3] was more than 5 µM.
